Laboratory results reported in US20070185099A1, “Triazolopyrimidine compounds and their use for controlling pathogenic fungi” (priority 2004, published 2007).

System: Puccinia recondita
Assay: Curative activity against brown rust of wheat caused by Puccinia recondita
Format: in vivo
Details: 250 ppm active compound, wheat cultivar Kanzler, 7 days after treatment, untreated plants 80% infected
Procedure: The active compounds were prepared as a stock solution by mixing 25 mg of active compound with a mixture of acetone and/or DMSO and the emulsifier Uniperol® EL (wetting agent having an emulsifying and dispersing action based on ethoxylated alkylphenols) in a volume ratio of solvent/emulsifier of 99:1 to give a total volume of 10 ml, and the mixture was then diluted to 100 ml with water. This stock solution was diluted with the solvent/emulsifier/water mixture described to give the concentration of active compounds stated below.
Leaves of potted wheat seedlings of the cultivar “Kanzler” were inoculated with a spore suspension of brown rust (Puccinia recondita). The pots were then placed into a chamber with high atmospheric humidity (90 to 95%) and at 20-22° C. for 24 hours. During this time, the spores germinated and the germ tubes penetrated into the leaf tissue. The next day, the infected plants were sprayed to runoff point with an aqueous suspension having the concentration of active compounds stated below. The suspension or emulsion was prepared as described above. After the spray coating had dried on, the test plants were cultivated in a greenhouse at temperatures between 20 and 22° C. and at 65 to 70% relative atmospheric humidity for 7 days. The extent of the rust fungus development on the leaves was then determined.

| SMILES | infection of treated plants (rust fungus development on leaves) |
| --- | --- |
| COC(=O)C(Nc1c(-c2c(F)cc(F)cc2F)c(Cl)nc2ncnn12)C(C)(C)C (racemic) [Example 61] | no infection |
| COC(=O)C(C(C)C)N(C)c1c(-c2c(F)cc(F)cc2F)c(Cl)nc2ncnn12 (centres unmarked) [Example 60] | no infection |
